Literature values in patent US20110110858A1, “Gold nanoparticle imaging agents and uses thereof” (priority 2009, published 2011).

Settings: 25° C.

pKa of the central CO2H: 2.5 | pKa of the lysyl amino group: 10.1 | pKa of the prolyl CO2H: 4.0 | pKa of the secondary amine group: 6.7
SMILES: NCCCC[C@H](N[C@@H](CCc1ccccc1)C(=O)O)C(=O)N1CCC[C@H]1C(=O)O [lisinopril]
